US4439426A, “Semisynthetic macrolidic antibiotics, intermediate compounds for their preparation and related pharmaceutical compositions containing them” (priority 1981, dated 1984)

Columns and labels:
[1] = tested on: Clostridium perfrigens ATCC 3624 LRP 206; test: microbe, parasite or virus in culture; type: cell-based; settings: ATCC3624, solid medium, anaerobic, read-out: Minimum inhibiting concentration
Excerpt: (§1) the bacteriostatic power, expressed as the minimum inhibiting concentration (MIC) against both aerobic and anaerobic, Gram positive and Gram negative, bacterial stocks: the related results are reported in the tables 2 and 3.

[2] = tested on: Salmonella typhy LRP 8; test: microbe, parasite or virus in culture; type: cell-based; settings: LRP8, solid medium, read-out: Minimum inhibiting concentration
Excerpt: as §1

[3] = tested on: Shigella sonnei LRP 5; test: Bacteriostatic power in solid medium (MIC); type: cell-based; settings: LRP5, read-out: Minimum inhibiting concentration
Excerpt: as §1

[4] = tested on: Fusobacteriumnecrophroum ATCC 27852 LRP 210; test: Bacteriostatic power in solid medium (MIC); type: cell-based; settings: read-out: Minimum inhibiting concentration
Excerpt: as §1

[5] = tested on: Bacillus subtilis LRP 25; test: Bacteriostatic power in solid medium (MIC); type: cell-based; settings: Bacillus subtilis, LRP25, read-out: Minimum inhibiting concentration
Excerpt: as §1

[6] = tested on: Escherichia coli LRP 50; test: Bacteriostatic power in solid medium (MIC); type: cell-based; settings: Escherichia coli, LRP50, read-out: Minimum inhibiting concentration
Excerpt: as §1

[7] = tested on: Streptococcus pyogenes ATCC 8668 LRP 34; test: Bacteriostatic power in solid medium (MIC); type: cell-based; settings: Streptococcus pyogenes, ATCC8668, read-out: Minimum inhibiting concentration
Excerpt: as §1

[8] = tested on: Corynebacterium diphteriae LRP 24; test: Bacteriostatic power in solid medium (MIC); type: cell-based; settings: Corynebacterium, LRP24, read-out: Minimum inhibiting concentration
Excerpt: as §1

[9] = tested on: Micrococcus luteus ATCC 15957 LRP 193; test: Bacteriostatic power in solid medium (MIC); type: cell-based; settings: Micrococcus luteus, ATCC15957, read-out: Minimum inhibiting concentration
Excerpt: as §1

[10] = tested on: Streptococcus pneumoniae ATCC 6303 LRP 53; test: Bacteriostatic power in solid medium (MIC); type: cell-based; settings: Streptococcus pneumoniae, ATCC6303, read-out: Minimum inhibiting concentration
Excerpt: as §1

[11] = tested on: Haemophilus influenzae ATCC 19418 LRP 213; test: Bacteriostatic power in solid medium (MIC); type: cell-based; settings: Haemophilus influenzae, ATCC19418, read-out: Minimum inhibiting concentration
Excerpt: as §1

[12] = tested on: Staphylococcus aureus ATCC 14154 LRP 78; test: Bacteriostatic power in solid medium (MIC); type: cell-based; settings: Staphylococcus aureus, ATCC14154, read-out: Minimum inhibiting concentration
Excerpt: as §1

[13] = tested on: Streptococcus faecalis LRP 7; test: Bacteriostatic power in solid medium (MIC); type: cell-based; settings: Enterococcus faecalis, LRP7, read-out: Minimum inhibiting concentration
Excerpt: as §1

[14] = tested on: Micrococcus luteus ATCC 9341 LRP 6; test: Bacteriostatic power in solid medium (MIC); type: cell-based; settings: Micrococcus luteus, ATCC9341, read-out: Minimum inhibiting concentration
Excerpt: as §1

[15] = tested on: Bacteroides fragilis ATCC 23745 LRP 205; test: Bacteriostatic power in solid medium (MIC); type: cell-based; settings: Bacteroides fragilis, ATCC23745, read-out: Minimum inhibiting concentration
Excerpt: as §1

[16] = tested on: Klelsiella pneumoniae LRP 54; test: Bacteriostatic power in solid medium (MIC); type: cell-based; settings: read-out: Minimum inhibiting concentration
Excerpt: as §1

[17] = tested on: Acholeplasma laidlawii ATCC 23206 LRP 204; test: Bacteriostatic power in solid medium (MIC); type: cell-based; settings: Acholeplasma laidlawii, ATCC23206, read-out: Minimum inhibiting concentration
Excerpt: as §1

[18] = tested on: Pseudomonas aeruginosa LRP 9; test: Bacteriostatic power in solid medium (MIC); type: cell-based; settings: Pseudomonas aeruginosa, LRP9, read-out: Minimum inhibiting concentration
Excerpt: as §1

[19] = tested on: Staphylococcus aureus ATCC 6538P LRP 14; test: Bacteriostatic power in solid medium (MIC); type: cell-based; settings: Staphylococcus aureus, ATCC6538P, read-out: Minimum inhibiting concentration
Excerpt: as §1

[20] = tested on: Streptococcus faecalis subsp. zymogenes ATCC 12958 LRP 61; test: Bacteriostatic power in solid medium (MIC); type: cell-based; settings: Enterococcus faecalis, ATCC12958, read-out: Minimum inhibiting concentration
Excerpt: as §1

[21] = tested on: Staphylococcus aureus ATCC 6538P LRP 39; test: Bacteriostatic power in solid medium (MIC); type: cell-based; settings: Staphylococcus aureus, ATCC6538P, read-out: Minimum inhibiting concentration
Excerpt: as §1

[22] = tested on: Streptococcus pneumoniae ATCC 6303 LRP 52; test: Bacteriostatic power in solid medium (MIC); type: cell-based; settings: Streptococcus pneumoniae, ATCC6303, read-out: Minimum inhibiting concentration
Excerpt: as §1

[23] = tested on: Proteus vulgaris ATCC 6380 LRP 13; test: Bacteriostatic power in solid medium (MIC); type: cell-based; settings: Proteus vulgaris, ATCC6380, read-out: Minimum inhibiting concentration
Excerpt: as §1

[24] = tested on: Streptococcus pyogenes ATCC 8668 LRP 197; test: Bacteriostatic power in solid medium (MIC); type: cell-based; settings: Streptococcus pyogenes, ATCC8668, read-out: Minimum inhibiting concentration
Excerpt: as §1

[25] = tested on: Neisseria gonorrhoeae ATCC 19424 LRP 214; test: Bacteriostatic power in solid medium (MIC); type: cell-based; settings: Neisseria gonorrhoeae, ATCC19424, read-out: Minimum inhibiting concentration
Excerpt: as §1

[26] = tested on: Mycoplasma hominis I ATCC 14027 LRP 211; test: Bacteriostatic power in solid medium (MIC); type: cell-based; settings: Metamycoplasma hominis, ATCC14027, read-out: Minimum inhibiting concentration
Excerpt: as §1

[27] = tested on: Streptococcus pneumoniae ATCC 6303 LRP 35; test: Bacteriostatic power in solid medium (MIC); type: cell-based; settings: Streptococcus pneumoniae, ATCC6303, read-out: Minimum inhibiting concentration
Excerpt: as §1

[28] = Stability in acidic environment at 25° C. (half-life of initial microbiological activity); type: physicochemical; settings: aqueous solution
Procedure: Stability in acidic environnment at 25° C. of the novel
Note: t 1/2 represents the time for reducing to one half the initial powe
of the antibiotic determined by microbiological method through diffusion
on a plate using the test stock Microccocus luteus (Sarcina lutea) ATCC

[29] = tested on: Streptococcus pyogenes ATCC 8668 LRP 34; test: Bacteriostatic power in liquid medium (MIC); type: cell-based; settings: Streptococcus pyogenes, ATCC8668, read-out: Minimum inhibiting concentration
Excerpt: as §1

[30] = tested on: Corynebacterium diphteriae LRP 24; test: Bacteriostatic power in liquid medium (MIC); type: cell-based; settings: Corynebacterium, LRP24, read-out: Minimum inhibiting concentration
Excerpt: as §1

[31] = tested on: Staphylococcus aureus ATCC 6538 P LRP 39; test: Bacteriostatic power in liquid medium (MIC); type: cell-based; settings: Staphylococcus aureus, ATCC6538, read-out: Minimum inhibiting concentration
Excerpt: as §1

[32] = tested on: Streptococcus faecalis subs. zymogenes ATCC 12958 LRP 61; test: Bacteriostatic power in liquid medium (MIC); type: cell-based; settings: Enterococcus faecalis, ATCC12958, read-out: Minimum inhibiting concentration
Excerpt: as §1

[33] = tested on: Streptococcus pneumoniae ATCC 6303 LRP 35; test: Bacteriostatic power in liquid medium (MIC); type: cell-based; settings: Streptococcus pneumoniae, ATCC6303, read-out: Minimum inhibiting concentration
Excerpt: as §1

[34] = tested on: Streptococcus pyogenes ATCC 8668 LRP 34; test: Minimum bactericidal concentration (MBC); type: cell-based
Excerpt: (§2) the bacterial power, expressed as the minimum bactericidal power (MBC) against some Gram positive aerobic stocks (table 5).

[35] = tested on: Corynebacterium diphteriae LRP 24; test: Minimum bactericidal concentration (MBC); type: cell-based
Excerpt: as §2

[36] = tested on: Streptococcus faecalis subs. zymogenes LRP 61; test: Minimum bactericidal concentration (MBC); type: cell-based
Excerpt: as §2

[37] = tested on: Staphylococcus aureus ATCC 6538 P LRP 39; test: Minimum bactericidal concentration (MBC); type: cell-based
Excerpt: as §2

[38] = tested on: Streptococcus pneumoniae ATCC 6303 LRP 35; test: Minimum bactericidal concentration (MBC); type: cell-based
Excerpt: as §2

CC[C@H]1OC(=O)[C@H](C)[C@@H](O[C@H]2C[C@H](OC)[C@@H](O)[C@H](C)O2)[C@H](C)[C@@H](O[C@@H]2O[C@H](C)C[C@H](N(C)C)[C@H]2O)[C@](C)(O)C[C@](C)(F)C(=O)[C@H](C)[C@@H](O)[C@]1(C)O [P-80207, 3-O-oleandrosyl-5-O-desosaminyl-(8S)-8-fluoroerythronolide A]
0.39 µg/mL: MIC [5] | MIC [13] | MIC [19] | MIC [20] | MIC [21]
0.78 µg/mL: MIC [31] | MIC [32] | MBC ([34]; Streptococcus pyogenes, ATCC8668, read-out: Minimum bactericidal concentration (MBC))
4: MBC/MIC [35]
10 h: half-life ([28]; pH 2)
0.097 µg/mL: MIC [10] | MIC [24] | MIC [25] | MIC [29] | MBC ([38]; Streptococcus pneumoniae, ATCC6303, read-out: Minimum bactericidal concentration (MBC))
25 µg/mL: MIC [2] | MIC [3] | MIC [6] | MIC [9] | MIC [12] | MIC [16] | MIC [18] | MIC [23] | MIC [26]
3.12 µg/mL: MIC [15] | MIC [17]
0.195 µg/mL: MBC ([35]; Corynebacterium, LRP24, read-out: Minimum bactericidal concentration (MBC))
2: MBC/MIC [38]
12.5 µg/mL: MIC [4] | MIC [11]
0.049 µg/mL: MIC [7] | MIC [8] | MIC [14] | MIC [22] | MIC [27] | MIC [30] | MIC [33]
6.25 µg/mL: MIC [1] | MBC ([36]; Enterococcus faecalis, read-out: Minimum bactericidal concentration (MBC)) | MBC ([37]; Staphylococcus aureus, ATCC6538, read-out: Minimum bactericidal concentration (MBC))
100 h: half-life ([28]; pH 3)
8: MBC/MIC [34] | MBC/MIC [36] | MBC/MIC [37]
